Literature values as cited in US10001483B2, “Methods for the treatment of Kaposi's sarcoma or KSHV-induced lymphoma using immunomodulatory compounds, and uses of biomarkers” (Celgene Corporation, priority 2015, dated 2018).
Read-outs that look alike come from different tables or passages of the source.

Details: patients, cited from earlier work

| Compound | Cmax (approved dose 25 mg) [ng/mL] | Plasma Serum Concentration (approved dose 25 mg) [µM] | Cmax (approved dose 200 mg) [ng/mL] | Plasma Serum Concentration (approved dose 200 mg) [µM] |
| --- | --- | --- | --- | --- |
| Nc1cccc2c1CN(C1CCC(=O)NC1=O)C2=O (stereo not shown) [lenalidomide, 3-(4-amino-1-oxo 1,3-dihydro-2H-isoindol-2-yl) piperidine-2,6-dione] | 451 | 2 |  |  |
| O=C1CCC(N2C(=O)c3ccccc3C2=O)C(=O)N1 (stereo not shown) [thalidomide, 2-(2,6-dioxopiperidin-3-yl)-1H-isoindole-1,3(2H)-dione] |  |  | 1760 | 7 |
